Assay results as given in article PMC3914206.

Key:
[1] = molecular target: T1, panel of 442 kinases (Homo sapiens, UniProt P31749); assay type: binding; parameters: KINOMEscan: ABL1(F317L)-phosphorylated / KINOMEscan: ABL1(H396P)-nonphosphorylated / KINOMEscan: ABL1(H396P)-phosphorylated / KINOMEscan: ABL1(M351T)-phosphorylated / KINOMEscan: ABL1(T315I)-phosphorylated / KINOMEscan: ABL1-nonphosphorylated / KINOMEscan: ABL1-phosphorylated / KINOMEscan: ACVR2A / KINOMEscan: ACVR2B / KINOMEscan: ADCK3 / KINOMEscan: ADCK4 / KINOMEscan: AKT1 / KINOMEscan: AKT3 / KINOMEscan: ALK / KINOMEscan: ARK5 / KINOMEscan: AURKA / KINOMEscan: AURKC / KINOMEscan: BIKE / KINOMEscan: BMPR1A / KINOMEscan: BMPR1B / KINOMEscan: BMX / KINOMEscan: BRK / KINOMEscan: BRSK1 / KINOMEscan: BRSK2 / KINOMEscan: CAMK1 / KINOMEscan: CAMK1D / KINOMEscan: CAMK1G / KINOMEscan: CAMK2A / KINOMEscan: CAMK2B / KINOMEscan: AAK1 / KINOMEscan: CAMK2D / KINOMEscan: CAMK2G / KINOMEscan: ABL1(F317I)-nonphosphorylated / KINOMEscan: ABL1(F317I)-phosphorylated / KINOMEscan: ABL1(F317L)-nonphosphorylated: unit: % Ctrl; conditions: Compound Concentration 10 µM
T1 construct: purchased KINOMEscan
Source text: (§1) We assessed the selectivity of members of this scaffold using the KINOMEscan methodology across a near comprehensive panel of 442 kinases [[18,27]].

[2] = molecular target: T2, panel of 442 kinases (Homo sapiens, UniProt P15735); assay type: binding; parameters: KINOMEscan: ABL1(F317L)-phosphorylated / KINOMEscan: ABL1(H396P)-nonphosphorylated / KINOMEscan: ABL1(H396P)-phosphorylated / KINOMEscan: ABL1(M351T)-phosphorylated / KINOMEscan: ABL1(T315I)-phosphorylated / KINOMEscan: ABL1-nonphosphorylated / KINOMEscan: ABL1-phosphorylated / KINOMEscan: ACVR2A / KINOMEscan: ACVR2B / KINOMEscan: ADCK3 / KINOMEscan: ADCK4 / KINOMEscan: AKT1 / KINOMEscan: AKT3 / KINOMEscan: ALK / KINOMEscan: ARK5 / KINOMEscan: AURKA / KINOMEscan: AURKC / KINOMEscan: BIKE / KINOMEscan: BMPR1A / KINOMEscan: BMPR1B / KINOMEscan: BMX / KINOMEscan: BRK / KINOMEscan: BRSK1 / KINOMEscan: BRSK2 / KINOMEscan: CAMK1 / KINOMEscan: CAMK1D / KINOMEscan: CAMK1G / KINOMEscan: CAMK2A / KINOMEscan: CAMK2B / KINOMEscan: AAK1 / KINOMEscan: CAMK2D / KINOMEscan: CAMK2G / KINOMEscan: ABL1(F317I)-nonphosphorylated / KINOMEscan: ABL1(F317I)-phosphorylated / KINOMEscan: ABL1(F317L)-nonphosphorylated: unit: % Ctrl; conditions: Compound Concentration 10 µM
T2 construct: purchased KINOMEscan
T2 sequence (P15735 1-406): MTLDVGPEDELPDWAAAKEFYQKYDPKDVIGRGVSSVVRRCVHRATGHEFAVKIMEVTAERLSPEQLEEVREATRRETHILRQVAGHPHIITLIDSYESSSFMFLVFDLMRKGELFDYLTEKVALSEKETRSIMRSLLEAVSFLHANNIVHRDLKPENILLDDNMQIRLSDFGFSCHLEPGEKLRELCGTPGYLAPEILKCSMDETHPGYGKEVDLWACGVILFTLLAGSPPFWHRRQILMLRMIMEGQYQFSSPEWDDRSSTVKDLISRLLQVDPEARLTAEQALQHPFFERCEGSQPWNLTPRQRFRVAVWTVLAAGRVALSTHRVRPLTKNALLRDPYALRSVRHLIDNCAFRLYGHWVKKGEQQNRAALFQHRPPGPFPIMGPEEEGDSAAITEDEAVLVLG
Source text: as §1

T1 sequence (P31749 whole entry): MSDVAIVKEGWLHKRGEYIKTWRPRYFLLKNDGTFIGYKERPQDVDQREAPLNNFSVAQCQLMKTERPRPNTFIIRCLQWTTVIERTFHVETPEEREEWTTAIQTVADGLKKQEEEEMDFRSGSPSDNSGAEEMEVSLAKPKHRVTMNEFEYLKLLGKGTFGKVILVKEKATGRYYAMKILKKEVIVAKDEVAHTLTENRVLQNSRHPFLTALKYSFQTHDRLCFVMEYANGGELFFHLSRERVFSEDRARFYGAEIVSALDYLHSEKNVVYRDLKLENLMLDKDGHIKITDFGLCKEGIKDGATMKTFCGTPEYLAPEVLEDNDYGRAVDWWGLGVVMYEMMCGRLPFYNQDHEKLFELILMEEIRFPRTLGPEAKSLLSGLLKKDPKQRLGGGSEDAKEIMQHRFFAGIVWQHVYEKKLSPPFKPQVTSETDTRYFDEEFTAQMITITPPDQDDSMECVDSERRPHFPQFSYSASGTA

| SMILES | KINOMEscan: AKT1 [1] | KINOMEscan: PHKG2 [2] |
| --- | --- | --- |
| COc1cc(C(=O)N2CCC(N3CCN(C)CC3)CC2)ccc1Nc1ncc2c(n1)N(C1CCCC1)c1ccccc1C(=O)N2C [Compound 25, 11-cyclopentyl-2-((2-methoxy-4-(4-(4-methylpiperazin-1-yl)piperidine-1-carbonyl)phenyl)amino)-5-methyl-5H-benzo[e]pyrimido[5,4-b][1,4]diazepin-6(11H)-one] | 100 | 68 |
| CCOc1cc(C(=O)N2CCC(N3CCN(C)CC3)CC2)ccc1Nc1ncc2c(n1)N(C1CCCC1)c1ccccc1C(=O)N2C [Compound 26] | 100 | 90 |
| COc1cc(C(=O)N2CCC(N3CCN(C)CC3)CC2)ccc1Nc1ncc2c(n1)N1CCc3cccc(c31)C(=O)N2C [Compound 24] | 90 | 47 |
| COc1cc(C(=O)N2CCC(N3CCN(C)CC3)CC2)ccc1Nc1ncc2c(n1)N(C)c1ccccc1C(=O)N2C [15 (LRRK2-IN-1)] | 79 | 33 |
